# Results reported in publication PMC5068747, “Using C. elegans Forward and Reverse Genetics to Identify New Compounds with Anthelmintic Activity” (PLoS Neglected Tropical Diseases, 2016).
# Where “and” joins values, the source holds several entries; their conditions need not be identical. Identical values can stand only once.
# Key:
# [1] = system: C. elegans VC3635 (pink-1 gk3615, D19 resistant); assay: IC50 on CID 2747322 resistant C. elegans strain VC3635; format: in vivo, Caenorhabditis elegans; conditions: Caenorhabditis elegans, 120 h; 5 days exposure, 2 L4 per well, three biological replicates
# Description: (§1) All compound libraries were stored in 96-well plates, with 80 drugs per plate (columns 1 and 12 left empty). A BioGrid BG600 pinning robot (Digilab / BioRobotics) was used for compound transfer. The robot uses a 96-pin tool (0.7 mm dia.) to transfer a nominal volume of 340 nL of compound. For retesting, compounds were hand pinned from the original library plates to assay plates using a single 0.7 mm dia. pin. The assay plates were 96-well clear flat-bottom microplates containing 2% χ1666 E.coli bacteria in 0.5X Liquid Nematode Growth Media (LNGM) plus cholesterol (Bacteria were mass-grown in rich media, and harvested by centrifugation to produce a thick paste of bacterial cells that was kept frozen at -20°C. Cells were resuspended at 2% W/V in 0.5X LNGM to produce liquid worm food). Using a COPAS Biosort (Union Biometrica), two L4 to young adult stage VC2010 worms were added to each well of the plate in a final volume of 45 μL. After five days of exposure to the compounds, the plates were scanned and the data analyzed. A five day time period was chosen to be able to observe effects over all stages of the life cycle and through at least one round of replication. The initial proof-of-principle primary screen was performed manually using a dissecting microscope. Phenotypes scored included decreased motility, reduced brood size, and/or death as described previously. For high throughput screening of the Chembridge and Maybridge compound libraries we used the program WormScan, which was adapted for screening 96-well flat-bottom LNGM plates. Using WormScan it was possible to screen four 96-well plates at a time. Plates were scanned twice, at a resolution of 1200 dots per inch, 16-bit grayscale, producing a jpeg image. The light intensity produced by the scanner was sufficient to cause negative phototaxis equivalent to a physical stimulus for mortality determination. The time required to scan four 96-well plates using an Epson Perfection V700 Photo Scanner was less than ten minutes. The time to screen a single plate was less than 1.2 minutes, with less than ten seconds between scans.
# (§2) WormScan was used to screen for the same phenotypes as in the manual screen (reduced brood size, reduced behavior/motility response and increased mortality). Two sequential scans for each 96-well plate were aligned to a reference region of interest (ROI). Image analysis was based on a difference image score calculated for each ROI. The difference image score (WormScan score) was normalized using a “percent of control” method to derive a normalized WormScan score. […] Wild-type growth in 1% DMSO (Fig 1A) results in a normalized WormScan score of 100. Exposure to 50 nM ivermectin gives a score of 0 (Fig 1C), and complete absence of worms gives a score of 0 (Fig 1D). For the primary screen the WormScan score was calculated using custom macro scripts written for Fiji. For secondary screening and any subsequent studies the WormScan score was calculated using a standalone Java program (See supplemental). Probit regression of mortality was calculated using Mathematica 8.0.
# (§3) A standard ethyl methanesulfonate (EMS) mutagenesis protocol was carried out using VC2010 in order to generate mutants resistant to CID 2747322 exposure. First larval stage (L1) F2 progeny of mutagenized P0s were exposed to CID 2747322 at 200 μM in liquid worm food in 24-well tissue culture plates for five days at room temperature, and two independently isolated resistant lines (VC3614 and VC3615) were identified. […]
# [2] = system: C. elegans VC3631 (mev-1 gk3613, D19 resistant); assay: IC50 on CID 2747322 resistant C. elegans strain VC3631; format: in vivo, Caenorhabditis elegans; conditions: Caenorhabditis elegans, 120 h; 5 days exposure, 2 L4 per well, three biological replicates
# Description: as §1, §2, §3
# [3] = system: C. briggsae; assay: Dosage curve on C. briggsae; format: in vivo; conditions: Caenorhabditis briggsae, 120 h; two L4 per well, five days of exposure
# Source text: Supplementary file pntd.0005058.s004.pdf: S4 Fig Dosage curve for effects on C. briggsae of CID 2747322. Two L4 C. briggsae animals were placed into each well of a 96-well pate for five days of exposure to CID 2747322. […] (PDF) Click here for additional data file.
# [4] = system: Meloidogyne hapla J2; assay: Immobilization of infective second-stage juveniles (J2) of Meloidogyne hapla; format: in vivo
# Description: A laboratory population of the plant-parasitic northern root-knot nematode, Meloidogyne hapla, was initiated by inoculating a tomato seedling growing in a 500 ml pot of 50:50 pasteurized sandy soil:peat with ~100 infective second-stage juveniles (J2) extracted from infested soil from a vineyard in the Okanagan Valley. The population was thereafter reared on tomato under greenhouse conditions. Prior to experimentation, galled roots were removed from heavily infested tomato plants, washed over a sieve with tap water, and then placed on Baermann funnels. J2 hatchings over the first three days were collected and suspended in tap water at a concentration of 100 J2/ml. Replicate 24-well cell culture plates were seeded with 0.2 ml of J2 suspension. Dilutions of CID 2747322 in distilled water were then added to the wells to result in four replicate wells of each of six concentrations in each plate. Concentrations tested spanned 0 to 320 μM and 0 to 160 μM in the two separate runs of the experiment. Nematodes were observed using an inverted microscope at 40X. On each observation date, a transect through each well was observed and J2 within the transect were scored as mobile or immobile. J2 that had taken on a straight posture were scored as immobile. Recently hatched J2 of M. hapla normally move continuously but slowly and always have a curved posture.
# Supplementary file pntd.0005058.s005.pdf: S5 Fig Dosage curve for effects on Meloidogyne hapla of CID 2747322. The percentage of immobilization of infective juveniles of Meloidogyne hapla was measure after ten days of exposure to the compound. Data are from two separate trials testing 0–320 and 0–160 μM concentration ranges, respectively, with each point representing the mean of twelve test wells. (PDF) Click here for additional data file.
structure (smiles),measurement,setting,value
"COc1ccc(OCCNC(=O)c2ccccc2C(F)(F)F)cc1 [CID 2747322, N-[2-(4-methoxyphenoxy)ethyl]-2-(trifluoromethyl)benzamide]",IC50,[1],> 500 µM
same,IC50,[2],> 500 µM
same,IC50,[3],16 µM
same,immobilization of M. hapla J2,"[4]; 160 and 320 μM, 24 hours after exposure initiation, increased through day 10",Immobilization was observed
same,IC50,"[4]; Meloidogyne hapla, 240 h, 10 day exposure",129 µM and 44 µg/mL
same,survival of M. hapla,[4]; extended exposure,die after extended exposure
